Consider 27 compounds from ChEMBL document CHEMBL2029231, “A novel series of pyrazolylpiperidine N-type calcium channel blockers” (Bioorg Med Chem Lett, 2012).

A short description of data set [1]: Inhibition of N-type calcium channel alpha1B/alpha2delta-1/beta1b assessed as inhibition of KCl-induced calcium mobilization by FDSS. A general note: A change in cytosolic calcium serves as a functional read-out for many receptors and channels.
A short description of data set [2]: (§1) Metabolic stability in rat liver microsomes assessed as compound remaining after 10 mins. The class given is ADME, Microsome. The settings on record: liver microsomes, read-out: Stability.
Data set [3] is described as follows: (§2) Metabolic stability in human liver microsomes assessed as compound remaining after 10 mins. The class given is ADME, Microsome. To be noted: liver microsomes, read-out: Stability.
The nature of data set [4]: Inhibition of N-type calcium channel alpha1B/alpha2delta-1/beta1b by patch clamp analysis. (Patch clamp records ionic current or voltage across a cell membrane.)
For data set [5], the system named is Liver microsomes. The description is as §2. The class given is ADME, Microsome. The settings on record: microsomes, 10 min.
The species entered for data set [6] is Rattus norvegicus. As to the kind of experiment: Ex vivo inhibition of rat N-type calcium channel assessed as inhibition of KCl-stimulated CGRP release at 1 uM by ELISA in presence of conotoxin GVIA. The class given is functional. In general terms: An ELISA detects its analyte on a solid surface through an enzyme-linked reagent.
Data set [7] in a line: Inhibition of L-type calcium channel at 5 uM.
Data set [8] is described as follows: Half life in Sprague-Dawley rat at 2 mg/kg, iv. The class given is ADME, organism-based. Also on record: dose 2 mg/kg, route intravenous. The settings on record: in vivo.
Data set [9] is described as follows: Clearance in Sprague-Dawley rat at 2 mg/kg, iv. Also on record: dose 2 mg/kg, route intravenous. The class given is ADME, organism-based. The settings on record: in vivo.
Data set [10] in a line: Tmax in Sprague-Dawley rat at 10 mg/kg, po. The class given is ADME, organism-based. Also on record: dose 10 mg/kg, route oral. The settings on record: in vivo.
Data set [11] is described as follows: Cmax in Sprague-Dawley rat at 10 mg/kg, po. The class given is ADME, organism-based. Also on record: dose 10 mg/kg, route oral. The settings on record: in vivo.
A short description of data set [12]: Oral bioavailability in Sprague-Dawley rat at 10 mg/kg. The class given is ADME, organism-based. To be noted: in vivo.
The subject of data set [13] is Rattus norvegicus. As to the kind of experiment: Antiinflammatory activity in ip dosed Sprague-Dawley rat assessed as reversal of carrageenan-induced thermal hypersensitivity administered 1 hr before carrageenan challenge. The class given is functional, organism-based.
The subject of data set [14] is Rattus norvegicus. The data set can be described thus: Antiinflammatory activity in Sprague-Dawley rat assessed as reversal of carrageenan-induced thermal hypersensitivity at 30 mg/kg, ip administered 1 hr before carrageenan challenge relative to control. The class given is functional. The settings on record: route intraperitoneal.
For data set [15], the system named is Rattus norvegicus. As to the kind of experiment: Antiallodynic activity in Sprague-Dawley rat chronic constriction injury-induced neuropathic pain model assessed as attenuation of CCl-induced cold allodynia at 30 mg/kg, ip measured at 1 to 4 hrs. The settings on record: route intraperitoneal. The class given is functional.
Data set [16] concerns Plasma. The data set can be described thus: Plasma concentration in Sprague-Dawley rat at 30 mg/kg, ip. To be noted: in vivo. The class given is ADME, organism-based. Also noted: dose 30 mg/kg, route intraperitoneal.
The subject of data set [17] is Liver microsomes. Described as §1. The class given is ADME, Microsome. The settings on record: microsomes, 10 min.

For `COc1ccccc1-n1nc(C2CCN(S(C)(=O)=O)CC2)cc1C1CCC(C)(C)CC1`, the IC50 in data set [1] amounted to 140 nM.

Regarding `COc1ccccc1-n1nc(C2CCN(S(C)(=O)=O)CC2)cc1-c1ccc(C#N)cc1`, the half-inhibitory concentration (IC50) in data set [1] turned out to be 170 nM.

Take `COc1ccccc1-n1nc(C2CCN(S(C)(=O)=O)CC2)cc1-c1ccc(Cl)c(C#N)c1`: in [1], the concentration for half-maximal inhibition (IC50) amounted to 95 nM.

For the compound `COc1ccccc1-n1nc(C2CCN(S(=O)(=O)CC(F)(F)F)CC2)cc1-c1ccc(Cl)cc1`, the IC50 in [1] was 26 nM. Moreover, the results for the remaining at 10 min in data set [2] and in data set [3] were 33% and 100%, respectively.

For `OCCCc1cc(-c2ccc(Cl)cc2)n(-c2ccccc2)n1`, the IC50 in data set [1] was determined as 1200 nM.

Take `COc1ccccc1-n1nc(C2CCN(S(=O)(=O)C(C)C)CC2)cc1-c1ccc(Cl)cc1`: the concentration for half-maximal inhibition (IC50) stood at 18 nM in data set [1] and 80 nM in data set [4]. Besides, the remaining at 10 min amounted to 19% in [2] and 100% in data set [3].

Take `COc1ccccc1-n1nc(CCCO)cc1-c1ccc(Cl)cc1`: the IC50 in [1] turned out to be 97 nM. For the same compound, in data set [2], the remaining at 10 min is 14%.

In the case of `COc1ccccc1-n1nc(C2CCN(S(C)(=O)=O)CC2)cc1-c1ccc(Cl)cc1Cl`, the 50% inhibitory concentration (IC50) in [1] came out at 15 nM.

Consider `COc1ccccc1-n1nc(C2CCN(S(C)(=O)=O)CC2)cc1C1=CCC(C)(C)CC1`, for which the half-maximal inhibitory concentration (IC50) in data set [1] came out at 49 nM.

Regarding `COc1ccccc1-n1nc(C2CCN(S(C)(=O)=O)CC2)cc1-c1ccc(N(C)C)cc1`, in [1], the IC50 was 61 nM.

Take `CS(=O)(=O)N1CCC(c2cc(-c3ccc(Cl)cc3)n(-c3ccccc3N)n2)CC1`: the half-inhibitory concentration (IC50) in data set [1] is above 300 nM.

With `COc1ccccc1-n1nc(C2CCN(S(=O)(=O)C(F)(F)F)CC2)cc1-c1ccc(Cl)cc1`, the IC50 in data set [1] was found to be 16 nM. Further, the results for the remaining at 10 min in [2] and in data set [3] were 100% and 98%, respectively.

As to `COc1c(Cl)cccc1-n1nc(C2CCN(S(C)(=O)=O)CC2)cc1-c1ccc(Cl)cc1`, the concentration for half-maximal inhibition (IC50) in data set [1] amounted to 170 nM.

As for `CC(C)Oc1ccccc1-n1nc(C2CCN(S(C)(=O)=O)CC2)cc1-c1ccc(Cl)cc1`, the concentration for half-maximal inhibition (IC50) in data set [1] turned out to be 5 nM. The remaining at 10 min in data set [2] was determined as 5%; in [3], 18%.

Regarding `CN(C)c1ccccc1-n1nc(C2CCN(S(C)(=O)=O)CC2)cc1-c1ccc(Cl)cc1`, in [1], the IC50 is 13 nM.

`COc1ccccc1-n1nc(C2CCN(S(C)(=O)=O)CC2)cc1-c1cc2ccccc2o1`: the 50% inhibitory concentration (IC50) in data set [1] turned out to be 400 nM.

For `CCS(=O)(=O)N1CCC(c2cc(-c3ccc(Cl)cc3)n(-c3ccccc3OC)n2)CC1`, the half-maximal inhibitory concentration (IC50) in [1] was found to be 35 nM. In addition, the remaining at 10 min in data set [2] came to 22%. Besides, the Stability result in data set [5] is listed as “Unstable”.

For `COc1ccccc1-n1nc(C2CCN(S(C)(=O)=O)CC2)cc1-c1ccc(F)cc1`, the IC50 in [1] stood at 98 nM.

Consider `CNc1ccc(-c2cc(C3CCN(S(C)(=O)=O)CC3)nn2-c2ccccc2OC)cc1`, for which the concentration for half-maximal inhibition (IC50) in [1] turned out to be 200 nM.

As to `COc1ccccc1-n1nc(C2CCN(S(C)(=O)=O)CC2)cc1-c1ccc(Cl)cc1`, the IC50 was 27 nM in data set [1] and 200 nM in data set [4]. Also, in data set [6], the “inhibition (INH)” value was found to be 91%. In data set [7], the inhibition turned out to be 52%. Further, in data set [8], the half-life is 1.5 h. This compound also returned a clearance in data set [9] of 26 mL/min/kg. Moreover, the Tmax in data set [10] worked out at 0.9 h. The same compound had a Cmax in [11] of 1.5 µM. For the same compound, the bioavailability in [12] worked out at 42.5%. For the same compound, the Activity entry in data set [13] is “Dose-dependent effect”; in [14], 82%. The inhibition in vivo at 30 mg/kg in data set [15] amounted to 41%. Also, the concentration in [16] is 8.32 µM. Besides, the results for the remaining at 10 min in data set [2] and in [3] were 45% and 86%, respectively.

Turning to `COc1ccccc1-n1nc(C2CCN(S(C)(=O)=O)CC2)cc1-c1ccc(OC(C)C)cc1`, the IC50 in data set [1] is 250 nM.

Regarding `COc1ccccc1-n1nc(C2CCN(S(C)(=O)=O)CC2)cc1-c1ccc(Cl)c(C(F)(F)F)c1`, the IC50 in data set [1] came out at 100 nM.

Consider `COc1ccccc1-n1nc(C2CCN(C(C)=O)CC2)cc1-c1ccc(Cl)cc1`, for which the half-inhibitory concentration (IC50) in data set [1] turned out to be 17 nM. Further, the remaining at 10 min is 7% in data set [2] and 59% in data set [3].

As to `COc1ccccc1-n1nc(C2CCN(S(C)(=O)=O)CC2)cc1-c1ccc2c(ccn2C)c1`, the concentration for half-maximal inhibition (IC50) in data set [1] stood at 68 nM.

As for `COc1ccccc1-n1nc(C2CCN(S(C)(=O)=O)CC2)cc1-c1ccc(C(C)(C)C)cc1`, the concentration for half-maximal inhibition (IC50) in data set [1] was found to be 29 nM.

In the case of `COc1ccccc1-n1nc(C2CCN(S(C)(=O)=O)CC2)cc1-c1ccc(Cl)s1`, in data set [1], the IC50 turned out to be 93 nM.

In the case of `COc1ccccc1-n1nc(C2CCN(S(=O)(=O)N(C)C)CC2)cc1-c1ccc(Cl)cc1`, the IC50 in [1] is 11 nM. Also, the Stability entry in data set [17] and in data set [5] was “Unstable” each time.

As a reminder, the IC50 is the concentration at which inhibition is half-maximal. One may read the inhibition as the share of the control response that was lost under treatment. In general, half-life refers to the time in which the quantity being followed falls by half. Low values mean fast loss, high ones slow loss. One may read the clearance as a measure of how efficiently the substance is removed, as volume per time. Broadly, the Tmax is the time from dosing to the highest level. Usually Cmax stands for the maximum level reached in the sampled fluid or tissue. Broadly, the bioavailability is the share of a dose that reaches the circulation, judged against a reference dose that is usually intravenous. The term inhibition in vivo denotes the percentage by which the read-out fell short of the control.
